Blank lines part the entries; values can stand above or below the molecule they belong to.
Columns and labels:
[1] = molecular target: Proto-oncogene tyrosine-protein kinase Src (Homo sapiens, UniProt P12931); test: Inhibition of His6-tagged Src kinase domain (unknown origin) using AEEEIYGEFEAKKKK as substrate preincubated for 10 mins followed by substrate/ATP addition measured after 30 mins by fluorescence assay
MCF7 [2] = test: Cytotoxicity against human MCF7 cells after 48 hrs by trypan blue assay; type: functional, cell-based; conditions: MCF7, 48 h
MCF7 [3] = test: Cytotoxicity against human MCF7 cells after 48 hrs by MTT assay; type: functional, cell-based; conditions: MCF7, 48 h
MCF7 [4] = test: Cytotoxicity against human MCF7 cells assessed as cell proliferation after 72 hrs by CellTiter 96 aqueous one solution cell proliferation assay relative to control; type: functional
SK-OV-3 = test: Cytotoxicity against human SKOV3 cells assessed as cell proliferation after 72 hrs by CellTiter 96 aqueous one solution cell proliferation assay relative to control; type: functional
MDA-MB-468 = test: Cytotoxicity against human MDA-MB-468 cells assessed as cell proliferation after 72 hrs by CellTiter 96 aqueous one solution cell proliferation assay relative to control; type: functional
HeLa [5] = test: Cytotoxicity against human HeLa cells assessed as growth inhibition after 72 hrs by MTT assay; type: functional, cell-based
Vero = test: Cytotoxicity against African green monkey Vero cells; type: cell-based; conditions: Chlorocebus sabaeus
[6] = Cytotoxicity against human Hep2 cells; type: functional, cell-based; conditions: HEp-2
[7] = Cytotoxicity against human NCI60 cells assessed as cell growth; type: functional
Paracentrotus lividus [8] = test: Antimitotic activity in sea urchin embryo assessed as embryo spinning; type: functional
Paracentrotus lividus [9] = test: Antimitotic activity in sea urchin embryo assessed as cleavage alterations; type: functional
Paracentrotus lividus [10] = test: Antimitotic activity in sea urchin embryo assessed as cleavage arrest; type: functional
U-937 [11] = test: Cytotoxicity against human U937 cells assessed as decrease in cell viability after 48 hrs; type: functional; conditions: U-937, 48 h
U-937 [12] = test: Antiproliferative activity against human U937 cells after 3 days; type: functional, cell-based; conditions: U-937, 72 h
HeLa [13] = test: Cytotoxicity against human HeLa cells after 72 hrs by MTT assay; type: functional, cell-based
KETR3 = test: Cytotoxicity against human Ketr3 cells after 72 hrs by MTT assay; type: functional, cell-based; conditions: KETR3, 72 h
A2780 = test: Cytotoxicity against human A2780 cells after 72 hrs by MTT assay; type: functional, cell-based; conditions: A2780, 72 h
MCF7 [14] = test: Cytotoxicity against human MCF7 cells after 72 hrs by MTT assay; type: functional, cell-based; conditions: MCF7, 72 h
[15] = Cytotoxicity against rat CRL1548 cells after 48 hrs by crystal violet dye-binding assay; type: functional; conditions: CRL1548, 48 h, read-out: LD50 (the source's name)
[16] = Cytotoxicity against rat CRL1439 cells after 48 hrs by crystal violet dye-binding assay; type: cell-based; conditions: read-out: LD50
A549 = test: Cytotoxicity against human A549 cells after 48 hrs by crystal violet dye-binding assay; type: functional; conditions: A549, 48 h, read-out: LD50 (the source's name)
NCI-H522 = test: Cytotoxicity against human NCI-H522 cells assessed as cell growth after 48 hrs by SRB assay relative to control; type: functional
UO-31 = test: Cytotoxicity against human UO31 cells assessed as cell growth after 48 hrs by SRB assay relative to control; type: functional
MDA-MB-231 = test: Cytotoxicity against human MDA-MB-231 cells assessed as cell growth after 48 hrs by SRB assay relative to control; type: functional
CAKI-1 = test: Cytotoxicity against human CAKI-1 cells assessed as cell growth after 48 hrs by SRB assay relative to control; type: functional
[17] = Cytotoxicity against human NCI60 cells assessed as cell growth after 48 hrs by SRB assay; type: functional
SW-620 = test: Cytotoxicity against human SW620 cells assessed as growth inhibition after 72 hrs by MTT assay; type: functional, cell-based; conditions: SW-620, 72 h
HepG2 = test: Cytotoxicity against human HepG2 cells assessed as growth inhibition after 72 hrs by MTT assay; type: functional, cell-based; conditions: HepG2, 72 h
MCF7 [18] = test: Cytotoxicity against human MCF7 cells assessed as growth inhibition at 100 uM after 48 hrs by MTT assay relative to control; type: functional; conditions: MCF7, 48 h, read-out: GI
MCF7 [19] = test: Cytotoxicity against human MCF7 cells assessed as growth inhibition at 50 uM after 48 hrs by MTT assay relative to control; type: functional; conditions: MCF7, 48 h, read-out: GI
MCF7 [20] = test: Cytotoxicity against human MCF7 cells assessed as growth inhibition at 10 uM after 48 hrs by MTT assay relative to control; type: functional; conditions: MCF7, 48 h, read-out: GI
MCF7 [21] = test: Cytotoxicity against human MCF7 cells assessed as growth inhibition at 200 uM after 48 hrs by MTT assay relative to control; type: functional; conditions: MCF7, 48 h, read-out: GI

Sequence of Proto-oncogene tyrosine-protein kinase Src (P12931 2-536 limits assumed): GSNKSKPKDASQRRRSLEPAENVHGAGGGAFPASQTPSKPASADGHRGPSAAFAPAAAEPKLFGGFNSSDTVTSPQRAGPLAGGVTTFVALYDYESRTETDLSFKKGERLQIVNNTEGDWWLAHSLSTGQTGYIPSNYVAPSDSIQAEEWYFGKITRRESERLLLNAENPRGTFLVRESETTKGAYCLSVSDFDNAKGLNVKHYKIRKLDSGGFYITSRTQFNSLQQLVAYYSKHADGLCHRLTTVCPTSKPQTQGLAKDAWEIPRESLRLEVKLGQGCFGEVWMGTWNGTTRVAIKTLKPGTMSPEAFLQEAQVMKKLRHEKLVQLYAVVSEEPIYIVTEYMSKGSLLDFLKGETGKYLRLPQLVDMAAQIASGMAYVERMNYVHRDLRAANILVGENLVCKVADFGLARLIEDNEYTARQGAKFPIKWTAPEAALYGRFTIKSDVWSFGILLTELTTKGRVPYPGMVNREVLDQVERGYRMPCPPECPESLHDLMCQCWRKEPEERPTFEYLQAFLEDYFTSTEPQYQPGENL

IC50 [1]: 73.5 µM
SMILES: CCCCCCCCCCc1c(C)c2ccc(N)cc2oc1=O

SMILES: Cc1ccc(C(=O)c2cc(F)c(OCC(=O)NNC(=O)c3cc4ccccc4oc3=O)c(Cl)c2)cc1
IC50 (MCF7 [2]): 9.4 µM | IC50 (MCF7 [3]): 9.3 µM

SMILES: CCc1c(C)c2cc3c(c(O)c2oc1=O)OC(C)(C)CC3
Activity (MCF7 [4]): 45% | Activity (SK-OV-3): 30% | Activity (MDA-MB-468): 85%

SMILES: COc1ccc2c(Cn3cnc(C(N)=O)n3)cc(=O)oc2c1
IC50 (HeLa [5]): 35.5 µM

SMILES: Cc1cc(=O)oc2ccc(OCNc3ccc(F)cc3)cc12
IC50 (Vero): 30.7 µM | IC50 [6]: 3.62 µM

SMILES: COc1ccc(-c2cc3cc(OC)c(OC)c(OC)c3oc2=O)cc1
GI50 [7]: 3.98 µM | EC (Paracentrotus lividus [8]): >5 µM | EC (Paracentrotus lividus [9]): 0.2 µM | EC (Paracentrotus lividus [10]): 4 µM

SMILES: Cc1cc(=O)oc2cc(O)c(O)cc12 [4-METHYLESCULETIN]
CC50 (U-937 [11]): 76 µM

IC50 (U-937 [12]): 83.2 µM
SMILES: O=c1ccc2ccc(O)c(O)c2o1 [DAPHNETIN]
CC50 (U-937 [11]): 120 µM

SMILES: Cc1cc(=O)oc2ccc(OCNc3ccccc3O)cc12
IC50 (Vero): 22.9 µM | IC50 [6]: 4.2 µM

IC50 [1]: 21.6 µM
SMILES: CCCCCCCCCCc1c(C)c2ccc(N(CC)CCCC(=O)O)cc2oc1=O

IC50 [1]: 36.5 µM
SMILES: CCCCCCc1c(C)c2ccc(N(CC)CCCC(=O)O)cc2oc1=O

SMILES: CO[C@@H]1[C@@H](N)[C@@H](O)[C@H](Oc2ccc3cc(NC(=O)c4ccccc4)c(=O)oc3c2C)OC1(C)C
IC50 (HeLa [13]): 2.89 µM | IC50 (KETR3): 2.14 µM | IC50 (A2780): 7.52 µM | IC50 (MCF7 [14]): 8.12 µM

SMILES: CC(=O)Oc1ccc(-c2c(-c3ccccc3)c3ccccc3oc2=O)cc1
CC50 [15]: > 100 µM | CC50 at 48 h [16]: > 100 µM | CC50 (A549): 89.3 µM

SMILES: COc1ccccc1NCOc1ccc2oc(=O)cc(C)c2c1
IC50 (Vero): 21.3 µM | IC50 [6]: 5.43 µM

SMILES: O=c1oc2ccccc2cc1C1=NN(c2ccccc2)C(c2ccc(O)cc2)C1 (stereo unspecified)
Activity (NCI-H522): -67.37% | Activity (UO-31): -63.77% | Activity (MDA-MB-231): -67.37% | Activity (CAKI-1): -65.18% | Activity [17]: 77.59%

IC50 [1]: 30.9 µM
SMILES: Nc1ccc2c(C(F)(F)F)cc(=O)oc2c1

SMILES: Cc1cc(C(=O)c2ccccc2Br)ccc1OCC(=O)NNC(=O)c1cc2ccccc2oc1=O
IC50 (MCF7 [2]): 7.7 µM | IC50 (MCF7 [3]): 7.6 µM

SMILES: Cc1cc(C(=O)c2ccc(Cl)cc2Cl)ccc1OCC(=O)NNC(=O)c1cc2ccccc2oc1=O
IC50 (MCF7 [2]): 10.4 µM | IC50 (MCF7 [3]): 10.2 µM

SMILES: CCCCCCCCCCc1c(C)c2cc3c(c(O)c2oc1=O)OC(C)(C)CC3
Activity (MCF7 [4]): 57% | Activity (SK-OV-3): 35% | Activity (MDA-MB-468): 36%

SMILES: Nc1nc(Cl)c2cnn(Cc3cc(=O)oc4cc(O)ccc34)c2n1
IC50 (SW-620): 35.4 µM | IC50 (HepG2): 25.6 µM | IC50 (HeLa [5]): 34 µM

SMILES: C=CCOc1cc2oc(=O)cc(-c3nc4ccccc4s3)c2cc1OCC=C
inhibition of growth at 100 µM (MCF7 [18]): 43.8% | inhibition of growth at 50 µM (MCF7 [19]): 25.3% | inhibition of growth at 10 µM (MCF7 [20]): 18.5% | inhibition of growth at 200 µM (MCF7 [21]): 70.3%

SMILES: CCN(CC)c1ccc2c(C)c(-c3ccc(OC(C)=O)cc3)c(=O)oc2c1
CC50 [15]: 45.1 µM | CC50 at 48 h [16]: 49.1 µM | CC50 (A549): 48.1 µM

SMILES: CO[C@@H]1[C@@H](N)[C@@H](O)[C@H](Oc2ccc3cc(NC(=O)c4ccccc4)c(=O)oc3c2Cl)OC1(C)C
IC50 (HeLa [13]): 5.35 µM | IC50 (KETR3): 14.6 µM | IC50 (A2780): 2.83 µM | IC50 (MCF7 [14]): 13.8 µM

Source: ChEMBL document CHEMBL3612015, “Coumarins as anticancer agents: a review on synthetic strategies, mechanism of action and SAR studies” (Eur J Med Chem, 2015)
